Test results published in ChEMBL document CHEMBL4507284, “Data for DCP probe BI-1230” (2021).

Key:
[1] = target: Neutrophil elastase (Homo sapiens) (UniProt P08246); assay: Elastase (h) Eurofins-Cerep enzyme and uptake assay; details: Compound concentration 10.0 uM
[2] = target: Beta-1 adrenergic receptor (Homo sapiens) (UniProt P08588); details: Compound concentration 10.0 uM
Caspase-3 (Homo sapiens) = Caspase-3 (Homo sapiens) (UniProt P42574); assay: Caspase-3 (h) Eurofins-Cerep enzyme and uptake assay; details: Compound concentration 10.0 uM
[3] = target: Cathepsin E (Homo sapiens) (UniProt P14091); assay: Cathepsin E Eurofins-Cerep enzyme and uptake assay; details: Mus musculus; Compound concentration 10.0 uM
[4] = target: Matrix metalloproteinase-9 (Homo sapiens) (UniProt P14780); assay: MMP-9 (h) Eurofins-Cerep enzyme and uptake assay; details: Compound concentration 10.0 uM
Caspase-8 (Homo sapiens) = Caspase-8 (Homo sapiens) (UniProt Q14790); assay: Caspase-8 (h) Eurofins-Cerep enzyme and uptake assay; details: Compound concentration 10.0 uM
[5] = target: Kappa-type opioid receptor (Homo sapiens) (UniProt P41145); details: Compound concentration 10.0 uM
[6] = target: Caspase-10 (Homo sapiens) (UniProt Q92851); assay: Caspase-10 (h) Eurofins-Cerep enzyme and uptake assay; details: Compound concentration 10.0 uM
[7] = target: Cathepsin G (Homo sapiens) (UniProt P08311); assay: Cathepsin G (h) Eurofins-Cerep enzyme and uptake assay; details: Compound concentration 10.0 uM
[8] = target: Angiotensin-converting enzyme (Homo sapiens) (UniProt P12821); assay: ACE (h) Eurofins-Cerep enzyme and uptake assay; details: Compound concentration 10.0 uM
[9] = target: Alpha-2C adrenergic receptor (Homo sapiens, UniProt P18825); assay: GPCRScan assay: inhibition of Alpha2C; set-up: radioligand conc. used [nm] 0.5 – 1.0, parental cells stable MDCK
[10] = target: 5-hydroxytryptamine receptor 7 (Homo sapiens) (UniProt P34969); details: Compound concentration 10.0 uM
[11] = target: 5-hydroxytryptamine receptor 2C (Homo sapiens) (UniProt P28335); details: Compound concentration 10.0 uM
Chain of 5-hydroxytryptamine receptor 2C (Homo sapiens) (P28335 whole entry): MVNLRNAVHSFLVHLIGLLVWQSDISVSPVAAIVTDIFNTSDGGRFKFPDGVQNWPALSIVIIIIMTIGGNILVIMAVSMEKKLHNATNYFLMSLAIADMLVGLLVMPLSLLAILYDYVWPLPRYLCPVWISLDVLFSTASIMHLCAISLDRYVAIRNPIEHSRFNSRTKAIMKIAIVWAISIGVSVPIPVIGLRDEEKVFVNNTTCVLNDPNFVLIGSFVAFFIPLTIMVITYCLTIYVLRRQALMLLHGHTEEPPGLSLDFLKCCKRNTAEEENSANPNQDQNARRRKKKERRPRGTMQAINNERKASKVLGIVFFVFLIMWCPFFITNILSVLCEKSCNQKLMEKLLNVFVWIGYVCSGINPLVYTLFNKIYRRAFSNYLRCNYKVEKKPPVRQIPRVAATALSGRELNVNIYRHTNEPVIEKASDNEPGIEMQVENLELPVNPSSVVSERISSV

Chain of Alpha-2C adrenergic receptor (P18825 whole entry): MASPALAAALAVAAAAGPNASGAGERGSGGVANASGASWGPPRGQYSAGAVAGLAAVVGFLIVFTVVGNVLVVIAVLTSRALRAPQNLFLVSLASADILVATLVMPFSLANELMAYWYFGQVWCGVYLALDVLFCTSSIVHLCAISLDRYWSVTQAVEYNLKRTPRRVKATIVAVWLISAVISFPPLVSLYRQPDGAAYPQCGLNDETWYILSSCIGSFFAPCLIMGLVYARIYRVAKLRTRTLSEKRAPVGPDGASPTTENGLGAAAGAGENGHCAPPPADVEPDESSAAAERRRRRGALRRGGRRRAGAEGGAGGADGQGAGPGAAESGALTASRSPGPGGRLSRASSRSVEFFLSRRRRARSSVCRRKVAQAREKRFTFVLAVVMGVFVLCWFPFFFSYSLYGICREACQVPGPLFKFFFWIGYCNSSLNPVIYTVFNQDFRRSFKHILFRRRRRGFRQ
Chain of Kappa-type opioid receptor (Homo sapiens) (P41145 whole entry): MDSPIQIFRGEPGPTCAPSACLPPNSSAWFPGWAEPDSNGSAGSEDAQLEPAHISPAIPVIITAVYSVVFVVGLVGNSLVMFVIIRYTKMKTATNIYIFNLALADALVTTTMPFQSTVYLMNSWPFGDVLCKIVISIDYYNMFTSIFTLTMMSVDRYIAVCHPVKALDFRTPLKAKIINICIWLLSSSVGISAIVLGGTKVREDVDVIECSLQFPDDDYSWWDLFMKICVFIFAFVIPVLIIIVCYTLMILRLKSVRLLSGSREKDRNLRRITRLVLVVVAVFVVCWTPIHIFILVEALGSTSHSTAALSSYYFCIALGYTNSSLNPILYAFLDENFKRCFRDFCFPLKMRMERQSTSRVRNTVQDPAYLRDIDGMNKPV
Chain of Cathepsin E (Homo sapiens) (P14091 whole entry): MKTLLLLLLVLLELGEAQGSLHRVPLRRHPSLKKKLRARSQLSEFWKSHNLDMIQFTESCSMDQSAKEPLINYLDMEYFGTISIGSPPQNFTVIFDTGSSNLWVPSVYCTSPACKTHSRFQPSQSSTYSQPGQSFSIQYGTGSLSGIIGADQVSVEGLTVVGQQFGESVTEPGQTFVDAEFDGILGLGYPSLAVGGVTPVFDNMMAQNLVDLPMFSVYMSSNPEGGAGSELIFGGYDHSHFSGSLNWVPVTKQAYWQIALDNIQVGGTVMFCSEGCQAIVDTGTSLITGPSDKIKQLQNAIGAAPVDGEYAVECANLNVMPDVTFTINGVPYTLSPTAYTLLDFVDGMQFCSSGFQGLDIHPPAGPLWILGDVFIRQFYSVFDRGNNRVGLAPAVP
Chain of Beta-1 adrenergic receptor (Homo sapiens) (P08588 whole entry, looked up): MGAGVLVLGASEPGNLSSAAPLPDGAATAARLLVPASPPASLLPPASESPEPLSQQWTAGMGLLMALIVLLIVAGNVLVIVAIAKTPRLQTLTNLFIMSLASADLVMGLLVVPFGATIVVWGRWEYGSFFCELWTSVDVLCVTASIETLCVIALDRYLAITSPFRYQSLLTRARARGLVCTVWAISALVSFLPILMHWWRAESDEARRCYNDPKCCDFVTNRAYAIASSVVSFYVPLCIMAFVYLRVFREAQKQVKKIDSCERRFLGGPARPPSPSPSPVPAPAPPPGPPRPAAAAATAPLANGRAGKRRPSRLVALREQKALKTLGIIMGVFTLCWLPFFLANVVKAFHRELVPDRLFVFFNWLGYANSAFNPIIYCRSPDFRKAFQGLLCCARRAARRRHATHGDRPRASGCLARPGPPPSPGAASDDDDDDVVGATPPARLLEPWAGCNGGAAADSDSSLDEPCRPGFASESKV
Chain of 5-hydroxytryptamine receptor 7 (Homo sapiens) (P34969 whole entry): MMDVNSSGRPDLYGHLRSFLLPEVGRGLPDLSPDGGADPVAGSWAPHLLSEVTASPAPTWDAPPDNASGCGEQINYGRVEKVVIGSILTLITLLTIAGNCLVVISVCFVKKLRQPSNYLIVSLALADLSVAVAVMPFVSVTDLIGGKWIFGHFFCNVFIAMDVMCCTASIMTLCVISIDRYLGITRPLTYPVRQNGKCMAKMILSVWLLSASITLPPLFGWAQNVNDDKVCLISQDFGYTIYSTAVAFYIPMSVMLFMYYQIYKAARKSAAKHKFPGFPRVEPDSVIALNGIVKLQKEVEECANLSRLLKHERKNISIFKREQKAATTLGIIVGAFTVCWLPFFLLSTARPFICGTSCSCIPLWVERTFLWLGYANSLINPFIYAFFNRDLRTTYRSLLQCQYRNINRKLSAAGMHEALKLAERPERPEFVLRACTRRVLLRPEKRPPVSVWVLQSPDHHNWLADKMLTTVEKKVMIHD
Chain of Cathepsin G (Homo sapiens) (P08311 whole entry): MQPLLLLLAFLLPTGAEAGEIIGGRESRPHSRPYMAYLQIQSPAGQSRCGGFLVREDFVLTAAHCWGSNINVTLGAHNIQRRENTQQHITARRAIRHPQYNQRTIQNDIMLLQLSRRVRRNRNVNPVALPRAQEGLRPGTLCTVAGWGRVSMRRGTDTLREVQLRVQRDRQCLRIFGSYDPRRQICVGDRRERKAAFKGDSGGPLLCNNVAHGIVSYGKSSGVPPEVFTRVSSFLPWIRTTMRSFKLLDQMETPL
Chain of Caspase-8 (Homo sapiens) (Q14790 217-374 limits assumed): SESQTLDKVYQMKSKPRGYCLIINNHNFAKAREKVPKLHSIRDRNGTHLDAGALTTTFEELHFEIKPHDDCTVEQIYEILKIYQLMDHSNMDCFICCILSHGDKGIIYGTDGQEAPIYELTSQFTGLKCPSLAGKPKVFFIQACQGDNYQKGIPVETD
Chain of Caspase-8 (Homo sapiens) (Q14790 385-479 limits assumed): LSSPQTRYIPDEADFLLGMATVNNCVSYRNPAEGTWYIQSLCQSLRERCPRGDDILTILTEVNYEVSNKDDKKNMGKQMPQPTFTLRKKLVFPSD
Chain of Neutrophil elastase (Homo sapiens) (P08246 whole entry): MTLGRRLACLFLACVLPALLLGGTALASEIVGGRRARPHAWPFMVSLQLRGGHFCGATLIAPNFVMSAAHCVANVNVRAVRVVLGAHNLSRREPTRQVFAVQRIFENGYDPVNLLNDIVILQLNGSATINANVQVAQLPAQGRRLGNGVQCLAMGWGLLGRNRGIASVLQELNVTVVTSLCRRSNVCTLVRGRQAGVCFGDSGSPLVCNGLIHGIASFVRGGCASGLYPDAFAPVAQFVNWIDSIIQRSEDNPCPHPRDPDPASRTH
Chain of Caspase-3 (Homo sapiens) (P42574 29-175 limits assumed): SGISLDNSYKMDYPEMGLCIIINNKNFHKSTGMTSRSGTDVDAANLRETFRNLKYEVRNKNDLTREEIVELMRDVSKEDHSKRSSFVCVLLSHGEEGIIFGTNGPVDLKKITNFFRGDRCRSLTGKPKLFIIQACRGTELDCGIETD
Chain of Caspase-3 (Homo sapiens) (P42574 176-277 limits assumed): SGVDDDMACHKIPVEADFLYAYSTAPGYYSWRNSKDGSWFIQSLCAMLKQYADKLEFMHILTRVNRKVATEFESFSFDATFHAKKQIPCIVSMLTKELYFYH
Chain of Caspase-10 (Homo sapiens) (Q92851 220-415 limits assumed): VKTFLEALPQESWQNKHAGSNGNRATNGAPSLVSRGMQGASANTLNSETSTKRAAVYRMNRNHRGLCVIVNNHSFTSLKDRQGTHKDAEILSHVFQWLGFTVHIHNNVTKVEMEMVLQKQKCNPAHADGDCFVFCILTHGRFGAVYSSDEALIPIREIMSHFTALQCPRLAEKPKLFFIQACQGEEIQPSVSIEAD
Chain of Caspase-10 (Homo sapiens) (Q92851 416-521 limits assumed): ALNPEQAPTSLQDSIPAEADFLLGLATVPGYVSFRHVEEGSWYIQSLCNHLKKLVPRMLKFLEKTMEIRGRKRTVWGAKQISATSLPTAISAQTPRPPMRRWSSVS
Chain of Matrix metalloproteinase-9 (Homo sapiens) (P14780 whole entry): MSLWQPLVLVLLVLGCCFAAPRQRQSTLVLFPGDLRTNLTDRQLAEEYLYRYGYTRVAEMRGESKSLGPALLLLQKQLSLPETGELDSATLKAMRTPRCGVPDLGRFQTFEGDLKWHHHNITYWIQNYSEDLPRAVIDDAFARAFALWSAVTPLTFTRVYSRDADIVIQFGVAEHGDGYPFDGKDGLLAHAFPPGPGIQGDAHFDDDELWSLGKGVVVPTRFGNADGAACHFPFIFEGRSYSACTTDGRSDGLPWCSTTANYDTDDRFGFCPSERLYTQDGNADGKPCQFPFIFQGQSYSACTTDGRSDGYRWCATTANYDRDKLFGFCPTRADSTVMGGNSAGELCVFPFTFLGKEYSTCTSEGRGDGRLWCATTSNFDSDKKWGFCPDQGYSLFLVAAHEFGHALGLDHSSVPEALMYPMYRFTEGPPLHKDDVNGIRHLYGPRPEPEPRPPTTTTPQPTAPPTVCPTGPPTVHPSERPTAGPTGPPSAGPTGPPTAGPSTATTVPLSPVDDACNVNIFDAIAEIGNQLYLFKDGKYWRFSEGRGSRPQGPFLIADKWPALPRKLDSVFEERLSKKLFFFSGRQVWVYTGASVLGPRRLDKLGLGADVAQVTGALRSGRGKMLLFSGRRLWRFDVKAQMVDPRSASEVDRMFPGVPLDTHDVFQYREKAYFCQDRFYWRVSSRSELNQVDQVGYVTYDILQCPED

Row | Compound | % Inhibition of Control Values [1] [%] | inhibition [2] [%] | % Inhibition of Control Values (Caspase-3 (Homo sapiens)) [%] | % Inhibition of Control Values [3] [%] | % Inhibition of Control Values [4] [%] | % Inhibition of Control Values (Caspase-8 (Homo sapiens)) [%] | inhibition [5] [%] | % Inhibition of Control Values [6] [%] | % Inhibition of Control Values [7] [%] | % Inhibition of Control Values [8] [%] | Ki ([9]; read-out: Ki) [µM] | Ki ([9]; read-out: pKi (converted)) [µM] | inhibition [10] [%] | inhibition [11] [%]
1 | COc1ccc2c(O[C@@H]3C[C@H]4C(=O)N[C@]5(C(=O)O)CC5/C=C\CCCCC[C@H](NC(=O)OC5CCCC5)C(=O)N4C3)cc(-c3csc(NC(=O)C(C)C)n3)nc2c1C (some centres undefined) [BI 1230] | 9.7 | 2.05 | 23.8 | -16.8 | 16.1 | -6.2 | 18.1 | 38.2 | 63 | 2.6 | 3.29 | 3.24 | – | –
2 | O=C(N[C@H]1CCCCC/C=C\C2C[C@@]2(C(=O)O)NC(=O)[C@@H]2C[C@@H](Oc3ccncc3)CN2C1=O)OC1CCCC1 (some centres undefined) [BI 1675] | – | – | – | – | – | – | – | – | – | – | – | – | -3.24 | 7.99
